Measurements published in patent publication US9700516B2, “Compositions and methods for reducing overdose” (priority 2014, dated 2017).

Test: Effect of alkalinizing agents on the pH of a solution of 0.1 N HCl with a starting pH of 2.0
Assay type: physicochemical
Procedure: Various alkalinizing agents were added to a solution of 0.1 N HCl with a starting pH of 2.0 and the pH of the solution was tested at different time points.

## O=C([O-])CC(O)(CC(=O)[O-])C(=O)[O-].[Na+].[Na+].[Na+] [Sodium Citrate, sodium citrate]
930 mg in 200 ml, 10 min
  pH: 5.53
930 mg in 200 ml, 20 min
  pH: 5.53
930 mg in 200 ml, 30 min
  pH: 5.53
930 mg in 200 ml, 40 min
  pH: 5.53
930 mg in 200 ml, 50 min
  pH: 5.53
930 mg in 200 ml, 60 min
  pH: 5.53

## [Mg+2].[OH-].[OH-] [magnesium hydroxide]
60 mg per 320 mL, 2 min
  pH: 2.29
60 mg per 320 mL, 3 min
  pH: 2.41
60 mg per 320 mL, 4 min
  pH: 2.47
60 mg per 320 mL, 5 min
  pH: 2.48
60 mg per 320 mL, 6 min
  pH: 2.48
60 mg per 320 mL, 7 min
  pH: 2.49
60 mg per 320 mL, 8 min
  pH: 2.49
60 mg per 320 mL, 9 min
  pH: 2.49
60 mg per 320 mL, 10 min
  pH: 2.49
60 mg per 320 mL, 20 min
  pH: 2.50
60 mg per 500 mL, 2 min
  pH: 2.12
60 mg per 500 mL, 3 min
  pH: 2.17
60 mg per 500 mL, 4 min
  pH: 2.18
60 mg per 500 mL, 5 min
  pH: 2.19
60 mg per 500 mL, 6 min
  pH: 2.19
60 mg per 500 mL, 7 min
  pH: 2.19
60 mg per 500 mL, 8 min
  pH: 2.19
60 mg per 500 mL, 9 min
  pH: 2.19
60 mg per 500 mL, 10 min
  pH: 2.19
60 mg per 500 mL, 20 min
  pH: 2.19
71 mg/200 ml, 81 mg/200 ml and 100 mg/200 ml
  effect on pH of the solution: raised the pH of the solution to neutral or higher
90 mg per 320 mL, 2 min
  pH: 2.37
90 mg per 320 mL, 3 min
  pH: 2.55
90 mg per 320 mL, 4 min
  pH: 2.77
90 mg per 320 mL, 5 min
  pH: 3.06
90 mg per 320 mL, 6 min
  pH: 3.13
90 mg per 320 mL, 7 min
  pH: 3.22
90 mg per 320 mL, 8 min
  pH: 3.28
90 mg per 320 mL, 9 min
  pH: 3.31
90 mg per 320 mL, 10 min
  pH: 3.33
90 mg per 320 mL, 20 min
  pH: 3.34
100 mg per 320 mL, 2 min
  pH: 2.36
100 mg per 320 mL, 3 min
  pH: 2.53
100 mg per 320 mL, 4 min
  pH: 2.74
100 mg per 320 mL, 5 min
  pH: 3.07
100 mg per 320 mL, 6 min
  pH: 3.39
100 mg per 320 mL, 7 min
  pH: 3.73
100 mg per 320 mL, 8 min
  pH: 4.26
100 mg per 320 mL, 9 min
  pH: 5.41
100 mg per 320 mL, 10 min
  pH: 5.86
100 mg per 320 mL, 20 min
  pH: 6.51
100 mg per 500 mL, 2 min
  pH: 2.21
100 mg per 500 mL, 3 min
  pH: 2.33
100 mg per 500 mL, 4 min
  pH: 2.38
100 mg per 500 mL, 5 min
  pH: 2.40
100 mg per 500 mL, 6 min
  pH: 2.40
100 mg per 500 mL, 7 min
  pH: 2.41
100 mg per 500 mL, 8 min
  pH: 2.41
100 mg per 500 mL, 9 min
  pH: 2.41
100 mg per 500 mL, 10 min
  pH: 2.41
100 mg per 500 mL, 20 min
  pH: 2.41
100 mg/320 ml, 180 mg/500 ml, 120 mg/320 ml, 200 mg/500 ml and 240 mg/500 ml
  effect on pH of the solution: rapidly raised the pH of the solution to neutral or higher
120 mg per 320 mL, 2 min
  pH: 2.49
120 mg per 320 mL, 3 min
  pH: 2.87
120 mg per 320 mL, 4 min
  pH: 3.54
120 mg per 320 mL, 5 min
  pH: 5.75
120 mg per 320 mL, 6 min
  pH: 6.65
120 mg per 320 mL, 7 min
  pH: 7.81
120 mg per 320 mL, 8 min
  pH: 8.55
120 mg per 320 mL, 9 min
  pH: 8.83
120 mg per 320 mL, 10 min
  pH: 8.94
120 mg per 320 mL, 20 min
  pH: 9.20
120 mg per 500 mL, 2 min
  pH: 2.21
120 mg per 500 mL, 3 min
  pH: 2.35
120 mg per 500 mL, 4 min
  pH: 2.44
120 mg per 500 mL, 5 min
  pH: 2.52
120 mg per 500 mL, 6 min
  pH: 2.57
120 mg per 500 mL, 7 min
  pH: 2.59
120 mg per 500 mL, 8 min
  pH: 2.59
120 mg per 500 mL, 9 min
  pH: 2.59
120 mg per 500 mL, 10 min
  pH: 2.59
120 mg per 500 mL, 20 min
  pH: 2.60
160 mg/320 ml (0.5 mg/ml)
  effect on pH of the solution: rapidly raised the pH of the solution to neutral or higher
180 mg per 500 mL, 2 min
  pH: 2.56
180 mg per 500 mL, 3 min
  pH: 3.09
180 mg per 500 mL, 4 min
  pH: 3.90
180 mg per 500 mL, 5 min
  pH: 5.69
180 mg per 500 mL, 6 min
  pH: 6.28
180 mg per 500 mL, 7 min
  pH: 6.64
180 mg per 500 mL, 8 min
  pH: 7.01
180 mg per 500 mL, 9 min
  pH: 7.61
180 mg per 500 mL, 10 min
  pH: 8.25
180 mg per 500 mL, 20 min
  pH: 9.07
200 mg per 500 mL, 2 min
  pH: 2.48
200 mg per 500 mL, 3 min
  pH: 2.81
200 mg per 500 mL, 4 min
  pH: 3.54
200 mg per 500 mL, 5 min
  pH: 5.42
200 mg per 500 mL, 6 min
  pH: 6.63
200 mg per 500 mL, 7 min
  pH: 7.99
200 mg per 500 mL, 8 min
  pH: 8.86
200 mg per 500 mL, 9 min
  pH: 9.07
200 mg per 500 mL, 10 min
  pH: 9.18
200 mg per 500 mL, 20 min
  pH: 9.41
240 mg per 500 mL, 2 min
  pH: 2.54
240 mg per 500 mL, 3 min
  pH: 3.14
240 mg per 500 mL, 4 min
  pH: 5.90
240 mg per 500 mL, 5 min
  pH: 7.73
240 mg per 500 mL, 6 min
  pH: 9.09
240 mg per 500 mL, 7 min
  pH: 9.35
240 mg per 500 mL, 8 min
  pH: 9.47
240 mg per 500 mL, 9 min
  pH: 9.54
240 mg per 500 mL, 10 min
  pH: 9.59
240 mg per 500 mL, 20 min
  pH: 9.71
All tested amounts, over the times tested
  pH of the solution: above 2.0
